Values of other authors, collected in publication PMC4844649, “A first-in-Asian phase 1 study to evaluate safety, pharmacokinetics and clinical activity of VS-6063, a focal adhesion kinase (FAK) inhibitor in Japanese patients with advanced solid tumors” (Cancer Chemotherapy and Pharmacology, 2016).
Where two headings read alike, the source gives them in different places.

How the values were obtained:
[1] = test system: advanced solid tumors; settings: cited from earlier work
[2] = design: method as in earlier work; settings: at the higher doses, phase 1 dose-escalation ref 11, 12; cited from earlier work
[3] = test system: Tregs and CD8 + T cells in the tumor microenvironment; design: method as in PMID 26406376; settings: squamous cell carcinoma model ref 17; cited from earlier work

## COc1cc(C(=O)NC2CCN(C)CC2)c(F)cc1Nc1ncc(C(F)(F)F)c(Oc2cccc3c2C(=O)N(C)C3)n1 [BI 853520]
[1]; phase 1 ref 11, 12
  objective radiographic responses: No objective radiographic responses
[2]
  dose-limiting toxicities: both proteinuria and fatigue were dose-limiting (Grade 3)

## CONC(=O)c1ccccc1Nc1cc(Nc2cc(C)nn2C(C)C)ncc1Cl [GSK2256098]
[1]; phase 1 ref 15
  objective radiographic responses: No objective radiographic responses

## CN(c1ncccc1CNc1nc(Nc2ccc3c(c2)CC(=O)N3)ncc1C(F)(F)F)S(C)(=O)=O [PF-00562271]
[1]; phase 1 ref 10
  objective radiographic responses: No objective radiographic responses

## CNC(=O)c1ccccc1Nc1cc(Nc2ccc(N3CCOCC3)cc2OC)ncc1C(F)(F)F [VS-4718]
[3]
  effect on Tregs and CD8 + T cell-mediated anti-tumor response: drives depletion of Tregs and promotes a CD8 + T cell-mediated anti-tumor response
